One data set has as its target T1, PKG (Homo sapiens, UniProt Q13976).
T1 sequence (Q13976 1-671): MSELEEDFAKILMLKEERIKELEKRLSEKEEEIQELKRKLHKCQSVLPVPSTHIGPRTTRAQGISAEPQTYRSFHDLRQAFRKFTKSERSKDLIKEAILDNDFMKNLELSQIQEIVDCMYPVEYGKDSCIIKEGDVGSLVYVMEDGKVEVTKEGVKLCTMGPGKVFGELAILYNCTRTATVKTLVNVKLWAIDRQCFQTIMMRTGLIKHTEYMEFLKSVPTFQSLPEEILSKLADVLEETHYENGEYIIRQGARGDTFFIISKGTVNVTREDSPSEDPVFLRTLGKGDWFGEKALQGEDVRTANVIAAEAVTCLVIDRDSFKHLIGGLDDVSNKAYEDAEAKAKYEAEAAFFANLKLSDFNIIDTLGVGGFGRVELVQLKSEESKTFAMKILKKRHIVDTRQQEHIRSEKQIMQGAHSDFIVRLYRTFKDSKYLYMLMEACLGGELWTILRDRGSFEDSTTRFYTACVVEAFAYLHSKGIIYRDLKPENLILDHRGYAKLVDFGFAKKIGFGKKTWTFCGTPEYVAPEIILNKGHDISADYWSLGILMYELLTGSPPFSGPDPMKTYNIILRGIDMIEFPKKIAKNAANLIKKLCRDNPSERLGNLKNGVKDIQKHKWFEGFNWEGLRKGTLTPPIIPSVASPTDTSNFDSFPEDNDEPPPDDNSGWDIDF
The experiment in a line: PKG inhibition: transfer of gamma-32P from ATP to peptide substrate. The data set is classed as biochemical.

Data set [1] addresses T2, PKA (Homo sapiens, UniProt P17612). The experiment in a line: PKA inhibition. The settings on record: for difference of IC50 for PKA versus PKG: PKA IC50 relative to PKG IC50. The data set is classed as biochemical.
Data set [2] relates to rats. The settings on record: intrathecal, after induction of an inflammatory response, 10 and 60 minutes later; cited from earlier work.
For the next data set, the system named is PKC isoforms. The settings on record: Series B, Table 2; read-out: IC50 PKC isoforms from literature; cited from earlier work.
Data set [3] has as its target T2, PKA. Particulars: cited from earlier work.
Data set [4] relates to CFA-induced thermal hyperalgesia in the hindpaws of rats. The experiment in a line: CFA-induced thermal hyperalgesia, hindpaw withdrawal latency. The data set is classed as in vivo. Particulars: rat; for Effectiveness: 24 hours after CFA injection. As for the experimental part: Both compounds were further tested for their efficacy in reducing complete Freund's adjuvant (CFA)-induced thermal hyperalgesia in the hindpaws of rats. The hindpaws of rats were first tested for their response to a thermal probe as a baseline reference. Then the right hindpaw was injected with CFA (100 μl). The injected site developed edema and redness, indicating an inflammatory reaction, within 12 hours. […] The rats were then given either compound 6 or 46 at different times after CFA injection via different routes as shown in the tables below. Each hindpaw was then tested for its response to a thermal stimulus on successive days.

For data set [5], the system named is rats. In words: Behavioural and motor observation of treated rats. The settings on record: rat; eating, sleeping, defecating, micturation, balance, exploring, socialization. The format is in vivo. As for the experimental part:
Modification of compound 6 to increase affinity and selectivity, and perhaps plasma half-life, as described above, will be important. […] For example, the animals had difficulty in changing from the supine to prone positions. […] The effects lasted for at least 24 hours and disappeared after 3 days.

[6] abbreviates: Activity: IC50 vrs PKG, Series B, 30 μM ATP.
The mark [7] stands for this setting: Table 4, read-out: PKA inhibition (IC50).

Results on eleven compounds are retold here after patent publication US9402826B2, “Neuronal pain pathway modulators” (The Trustees of Columbia University in the City of New York, priority 2006, dated 2016).

Usually pIC50 stands for the IC50 on a negative log10 scale, so that one unit is a factor of ten.

SMILES strings stand for the structures. pIC50: −log10 of the molar value. Read-outs that look alike come from different tables or passages of the source.

For the compound `COc1ccc(O)c(C(=O)c2ccc(C(=O)OC3CNCC3NC(=O)c3ccc(O)cc3)cc2)c1F` (stereo not shown) [Compound B-7], the negative logarithm of the IC50 (pIC50) was 7.40 at PKG (setting [6]); 7.40 at PKG (PKG activity (IC50), Table 1); 7.40 at PKG (PKG inhibition (IC50), Table 4); 7.42 on PKA [1] (Series B, Table 2, read-out: Activity: IC50 vrs PKA); 7.42 at PKA [1] (Table 1, read-out: PKA activity (IC50)); 7.40 at PKA [1] (setting [7]). Also, on PKA [1], the “difference of IC50 for PKA versus PKG” value is given as “approximately the same IC50”.

With `CCN(CC)CC.Nc1nc2c(nc(Sc3ccc(Cl)cc3)n2[C@@H]2O[C@@H]3COP(O)(=S)O[C@H]3[C@H]2O)c(=O)[nH]1` (stereo partly shown) [Rp-8-[4-chlorophenyl)thio]-cGMPS triethylamine], in the data set on rats [2], the “effect on acute pain” value is “significant attenuation of acute pain”.

Consider `O=C(NC1CNCC1OC(=O)c1cc(O)c(C(=O)c2c(O)cccc2C(=O)O)c(O)c1)c1ccc(O)cc1` (stereo not shown) [Compound B-2, reference compound], for which the pIC50 in the data set with PKC isoforms was 7.48 to 8.40; at PKA [3] (read-out: IC50 PKA from literature, Series B, Table 2), 7.15; at PKA [3] (read-out: PKA activity (IC50), Table 1, from Lai et al. 1997), 7.48 to 8.40; at PKA [3] (read-out: PKA inhibition (IC50), Table 3, same values given as from literature in Table 2), 7.15; against PKG (setting [6]), 8.15; against PKG (PKG activity (IC50), Table 1), 8.15. On PKG (PKG inhibition (IC50), Table 3), this compound gave a negative-log IC50 (pIC50) of 8.15. Besides, on PKG, the “reduction of PKG inhibition relative to balanol” value was found to be 5 fold. The “difference of IC50 for PKA versus PKG” value at PKA [1] came to 3 fold.

`O=C(NC1CNCCCC1OC(=O)c1cc(O)c(C(=O)c2c(O)cccc2C(=O)O)c(O)c1)c1ccc(O)cc1` (stereo not shown) [balanol, reference compound]: on PKG (Table 3, read-out: PKG inhibition (IC50)), the negative-log IC50 (pIC50) was 8.80.

Turning to `O=C(N[C@@H]1CNC[C@H]1NC(=O)c1ccc2[nH]ncc2c1)c1ccc(O)cc1` [Compound B-50], the pIC50 against PKG (IC50 (PKG), text b321) is 7.15; at PKA [1] (Table 6, read-out: PKA inhibition (IC50)), 7.15. In addition, the “selectivity over PKA (in words)” value on PKA [1] (PKG versus PKA) is listed as “no selectivity over PKA”.

Regarding `O=C(NC1CCCC1OC(=O)c1cc(O)c(C(=O)c2c(O)cccc2C(=O)O)c(O)c1)c1ccc(O)cc1` (stereo not shown) [Compound B-1, reference compound], the negative logarithm of the IC50 (pIC50) at PKG (setting [6]) was 8.10 to 8.15; on PKG (PKG activity (IC50), Table 1) it was 8.10 to 8.15; on PKG (PKG inhibition (IC50), Table 3), 8.15. On PKA [1], the “difference of IC50 for PKA versus PKG” value is on record as 3 fold.

Consider `CCCOc1ccc(OC)c(F)c1C(=O)c1ccc(C(=O)OC2CNCC2NC(=O)c2ccc(O)cc2)cc1` (stereo not shown) [Compound B-21], for which the negative logarithm of the IC50 (pIC50) against PKG (PKG inhibition (IC50), Table 4) was 6.70; on PKA [1] (setting [7]), less than 5.00.

In the case of `O=C(OCc1ccccc1Cl)c1ccc(-c2ccc(O)cc2)cc1` [Compound 8J], the “inhibition of PKG activity” value on PKG (10 μM compound, average of two independent experiments) is “weaker inhibition”. For the same compound, the “inhibitory activity on PKG (in words)” value on PKG (1 and 10 micromolar compound (FIGS. 10A-B)) is “significant inhibitory activity”.

In the case of `O=C(N[C@@H]1CNC[C@H]1NC(=O)c1ccc(O)cc1)c1ccc(O)cc1` [Compound B-48], the “PKG inhibitory activity (in words)” value on PKG is “moderate PKG inhibitory activity”. The negative-log IC50 (pIC50) at PKG (Table 6, read-out: PKG inhibition (IC50)) is roughly 6.70.

For the compound `COCOc1ccc(OC)c(F)c1C(=O)c1ccc(C(=O)OC2CNCC2NC(=O)c2ccc(O)cc2)cc1` (stereo not shown) [Compound B-6], the “Effectiveness (recovery)” value is greater than 90% in data set [4] (3.3 nmol, subcutaneous pump, 60 hours after CFA injection, 5 days later) and greater than 50% in data set [4] (0.25 μM final CSF conc., intrathecal pump, 72 hours after CFA injection, 10 days). Besides, the Effectiveness in data set [4] (25 μM final CSF conc., intrathecal pump, 6 days later) is reported as greater than 90% 6 days; in data set [4] (82.5 μM final CSF conc., intrathecal single injection), “No effect”. Also, the “analgesic effects (in words)” value in data set [4] (doses and routes tested, preliminary results) was “analgesic effects comparable to that achieved with the most potent commercially available inhibitor of PKG”. Further, the “effect on thermal hyperalgesia” value in data set [4] (single dose injection) was “failed to reduce thermal hyperalgesia”. In addition, the negative-log IC50 (pIC50) against PKG (setting [6]) is 7.40; at PKG (IC50 with PKG, Example 12), 7.40; on PKG (PKG activity (IC50), Table 1) it was 7.40; at PKG (PKG inhibition (IC50), Table 4), 7.40; at PKA [1] (Example 12, read-out: IC50 with PKA) it was 6.02; at PKA [1] (setting [7]), 6.02. Moreover, the “difference of IC50 for PKA versus PKG” value on PKA [1] is given as “about 20 fold”. In addition, the adverse behavioral effects entry in the data set on rats [5] was “did not exhibit any adverse behavioral effects”.

Consider `O=C(Nc1ccccc1)Nc1ccc(C(=O)O[C@@H]2CCC[C@H]2NC(=O)c2ccc(O)cc2)cc1` (relative stereo) [Series A 11], for which the “Activity (ability to inhibit PKG)” value on PKG (Series A, compounds at 10 μM, 30 μM ATP) is “no inhibition”.
